According to patent US20100063009A1, “Pharmaceutical Combination Comprising 6-Dimethylaminomethyl-1-(3-methoxy-phenyl)-cyclohexane-1.3-diol and an NSAID” (GRUENENTHAL GmbH, priority 2008, published 2010):
Values joined by “and” are separate entries in the source; they are usually repeats but may differ in a detail not shown here. Equal values may be shown once. Where a name gives a salt, the structure may show the parent alone. Read-outs that look alike come from different tables or passages of the source.

Test system: inflamed rat hind paw
Assay: Randall-Selitto test in rats (carrageenan-induced inflammatory pain, mechanical nociceptive threshold)
Type: in vivo
Settings: for ED50: Rattus norvegicus; for timepoint of peak effect: substance applied alone, A i.v., NSAIDs i.p.
Method: The weight ratios of the components (a) and (b) that will lead to a supra-additive effect (synergistic effect) of the inventive pharmaceutical composition may be determined via the test of Randall and Selitto as described in Arch. Int. Pharmacodyn., 1957, 111: 409 to 419, which is a model for inflammatory pain. The respective part of the literature is hereby incorporated by reference and forms part of the present disclosure.
Acute inflammation is induced by an intraplantar injection of 0.1 ml of a carrageenan solution (0.5% in distilled water) into one hind paw. The mechanical nociceptive threshold is measured 4 hours after carrageenan injection using an Algesiometer (Ugo Basile, Italy). The device generates a mechanical force with a linear increase over time. The force is applied to the dorsal surface of the inflamed rat hind paw via a cone-shaped stylus with a rounded tip (2 mm tip diameter). The nociceptive threshold is defined as the force (in grams) at which the rat vocalises (cut-off force 250 g). The mechanical nociceptive threshold is measured at different timepoints after the drug or vehicle administration. The antinociceptive and antihyperalgesic activity of the tested substance is expressed as percentages of the maximal possible effect (% MPE). The group size is n=10.
The interactions studies presented herein were performed using equieffective doses of the two components, calculated from the ratio of the respective ED50 values of the components if administered alone.
The route of administration was intravenous (i.v.) for (1RS,3RS,6RS)-6-dimethylaminomethyl-1-(3-methoxy-phenyl)-cyclohexane-1,3-diol hydrochloride (A) and intraperitoneal (i.p.) for the NSAIDs diclofenac, ibuprofen, metamizol-sodium and naproxen. […] (diclofenac, ibuprofen) and 45 min p. appl. (naproxen, metamizol-sodium).

[1] = ip, measured at peak effect 30 min (diclofenac, ibuprofen) or 45 min (naproxen, metamizol-sodium) p. appl., n=10, read-out: ED50 of the NSAID applied alone

Compound | ED50 [1] [mg/kg] | timepoint of peak effect [min p. appl.] | ED50 of the NSAID applied alone (i.p., measured at peak effect 30 min (diclofenac, ibuprofen) or 45 min (naproxen, metamizol-sodium) p. appl., n=10) | ED50 (iv, measured at peak effect 15 min p. appl., 4 h after carrageenan, % MPE, n=10, 95% range in brackets, read-out: ED50 of A applied alone) [mg/kg] | ED50 of A applied alone (i.v., measured at peak effect 15 min p. appl., 4 h after carrageenan, % MPE, n=10, 95% range in brackets, hydrochloride)
O=C(O)Cc1ccccc1Nc1c(Cl)cccc1Cl [Diclofenac, diclofenac] | 146 | 30 | – | – | –
CC(C)Cc1ccc(C(C)C(=O)O)cc1 (centres unmarked) [Ibuprofen] | 139 | 30 | – | – | –
Cc1c(N(C)CS(=O)(=O)[O-])c(=O)n(-c2ccccc2)n1C.[Na+] [Metamizol-Sodium, metamizol-sodium] | – | 45 | 88.1 (77.5-98.3) mg/kg | – | –
COc1cccc([C@@]2(O)C[C@H](O)CC[C@@H]2CN(C)C)c1 (racemic) [A, (1RS,3RS,6RS)-6-dimethylaminomethyl-1-(3-methoxy-phenyl)-cyclohexane-1,3-diol hydrochloride] | – | 15 | – | 15.8 | 14.5 (13.3-15.6) mg/kg and 14.1 (13.2-15.1) mg/kg
COc1ccc2cc([C@H](C)C(=O)O)ccc2c1 [Naproxen, naproxen] | 164 | 45 | – | – | –
